The structures appear in SMILES notation. pKd: −log10 of the molar value.

For 2 molecules, Kd results are on record in ChEMBL document CHEMBL4049403, “Oligo-aspartic acid conjugates with benzo[c][2,6]naphthyridine-8-carboxylic acid scaffold as picomolar inhibitors of CK2” (Bioorg Med Chem, 2017).

For this test, the target named is Albumin (Bos taurus, UniProt P02769). Briefly: Binding affinity to bovine serum albumin by fluorescence anisotropy based method. It counts as ADME.
Chain of Albumin (P02769 whole entry): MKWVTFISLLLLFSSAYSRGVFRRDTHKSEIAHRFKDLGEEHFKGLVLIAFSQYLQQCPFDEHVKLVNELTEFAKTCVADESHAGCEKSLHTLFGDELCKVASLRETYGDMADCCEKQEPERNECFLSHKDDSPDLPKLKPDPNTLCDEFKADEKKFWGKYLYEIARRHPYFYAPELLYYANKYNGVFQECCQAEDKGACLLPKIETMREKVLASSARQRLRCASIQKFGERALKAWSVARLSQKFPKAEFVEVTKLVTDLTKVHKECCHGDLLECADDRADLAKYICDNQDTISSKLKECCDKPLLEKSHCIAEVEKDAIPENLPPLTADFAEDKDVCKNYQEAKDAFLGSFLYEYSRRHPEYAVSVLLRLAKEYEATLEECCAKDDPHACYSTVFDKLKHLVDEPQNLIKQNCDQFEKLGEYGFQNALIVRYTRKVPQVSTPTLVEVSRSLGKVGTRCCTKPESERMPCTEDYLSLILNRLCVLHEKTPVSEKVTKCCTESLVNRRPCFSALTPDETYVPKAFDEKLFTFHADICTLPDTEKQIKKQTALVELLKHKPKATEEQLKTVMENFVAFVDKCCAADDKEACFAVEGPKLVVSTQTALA

For orientation: pKd means the Kd on a negative log10 scale, so that one unit is a factor of ten. For the molecule `CCN1c2cc(S(=O)(=O)O)ccc2\C(=C/C=C/C=C/C2=[N+](CC)c3ccc(S(=O)(=O)[O-])cc3C2(C)C)C1(C)CCCC(=O)NCCCC[C@H](NC(=O)[C@H](CC(=O)O)NC(=O)[C@H](CC(=O)O)NC(=O)[C@H](CC(=O)O)NC(=O)[C@H](CC(=O)O)NC(=O)[C@H](CC(=O)O)NC(=O)[C@H](CC(=O)O)NC(=O)CCCCCCCn1cnc2c(Br)c(Br)c(Br)c(Br)c21)C(=O)O` (some centres not stated), the pKd is 5.77. Then `CCN1c2cc(S(=O)(=O)O)ccc2\C(=C/C=C/C=C/C2=[N+](CC)c3ccc(S(=O)(=O)[O-])cc3C2(C)C)C1(C)CCCC(=O)NCCCC[C@H](NC(=O)CCCCCCCCOc1nc2cc(C(=O)O)ccc2c2cnccc12)C(=O)N[C@@H](CC(=O)O)C(=O)N[C@@H](CC(=O)O)C(=O)N[C@@H](CC(=O)O)C(=O)N[C@@H](CC(=O)O)C(=O)O` (some centres not stated), with less than 4.30.
